# Source: patent publication US8299036B2, “Active agent combinations with insecticidal and acaricidal properties” (priority 2003, dated 2012)
# What was measured:
# Format in all cases: in vivo
# Aphis gossypii = Aphis gossypii test (cotton leaves, dip); conditions: Table A
# Experimental: To produce a suitable preparation of active compound, 1 part by weight of active compound is mixed with the stated amount of solvent and emulsifier, and the concentrate is diluted with emulsifier-containing water to the desired concentration.
# Cotton leaves (Gossypium hirsutum) which are heavily infested by the cotton aphid (Aphis gossypii) are treated by being dipped into the preparation of active compound of the desired concentration.
# (§1) After the desired period of time, the kill in % is determined. 100% means that all aphids have been killed; 0% means that none of the aphids have been killed. The kill rates determined are calculated using Colby's formula (see page 44).
# Myzus persicae = Myzus persicae test (cabbage leaves, dip); conditions: Table C
# Experimental: (§2) To produce a suitable preparation of active compound, 1 part by weight of active compound is mixed with the stated amounts of solvent and emulsifier, and the concentrate is diluted with emulsifier-containing water to the desired concentration.
# Cabbage leaves (Brassica oleracea) which are heavily infested by the green peach aphid (Myzus persicae) are treated by being dipped into the preparation of active compound of the desired concentration.
# as §1
# [1] = test system: Tetranychus urticae (OP-resistant); assay: Tetranychus urticae test (OP-resistant; dip application)
# Experimental: Tetranychus urticae Test (OP-Resistant; Dip Application)
# as §2
# Bush beans (Phaseolus vulgaris) which are heavily infested by the greenhouse red spider mite (Tetranychus urticae) are dipped into a preparation of active compound of the desired concentration.
# After the desired period of time, the kill in % is determined. 100% means that all spider mites have been killed; 0% means that none of the spider mites have been killed. The kill rates determined are calculated using Colby's formula (see page 44).
# [2] = test system: Phaedon cochleariae larvae; assay: Phaedon cochleariae larvae test (cabbage leaves, dip)
# Experimental: Phaedon cochleariae Larvae Test
# as §2
# Cabbage leaves (Brassica oleracea) are treated by being dipped into the preparation of active compound of the desired concentration and are populated with larvae of the mustard beetle (Phaedon cochleariae) while the leaves are still moist.
# After the desired period of time, the kill in % is determined. 100% means that all beetle larvae have been killed; 0% means that none of the beetle larvae have been killed. The kill rates determined are calculated using Colby's formula (see page 44).
# Heliothis armigera = Heliothis armigera test (cabbage leaves, dip); conditions: for Kill rate in % after 6 d, found: Table B 1; for Kill rate in % after 3 d, found: Table B 2
# Experimental: as §2
# Cabbage leaves (Brassica oleracea) are treated by being dipped into the preparation of active compound of the desired concentration and are populated with caterpillars of the cotton boll worm (Heliothis armigeia) while the leaves are still moist.
# After the desired period of time, the kill in % is determined. 100% means that all caterpillars have been killed; 0% means that none of the caterpillars have been killed. The kill rates determined are calculated using Colby's formula (see page 44).
compound,measurement,setting,value
"CC(C)c1cc(Oc2ccccc2)cc(C(C)C)c1NC(=S)NC(C)(C)C [(2-5) diafenthiuron, diafenthiuron, reference compound]","Kill rate in % after 1 d, found",Aphis gossypii; 20 ppm,15%
"O=S1OCC2C(CO1)C1(Cl)C(Cl)=C(Cl)C2(Cl)C1(Cl)Cl (stereo not shown) [(2-20) endosulfan, endosulfan, reference compound]","Kill rate in % after 6 d, found",Myzus persicae; 20 ppm,15%
Cc1cc(C)c(C2=C(OC(=O)CC(C)(C)C)C3(CCCC3)OC2=O)c(C)c1 [Example I-1],"Kill rate in % after 7 d, found","[1]; Table E 2, 0.8 ppm",65%
same,"Kill rate in % after 4 d, found","[2]; Table D 2, 100 ppm",45%
CCC(C)(C)C(=O)OC1=C(c2ccc(Cl)cc2Cl)C(=O)OC12CCCCC2 [Example I-2],"Kill rate in % after 7 d, found","[1]; Table E 1, 0.8 ppm",0%
same,"Kill rate in % after 4 d, found","[2]; Table D 1, 100 ppm",0%
Cc1cc(Cl)cc(C(=O)NC(C)C)c1NC(=O)c1cc(C(F)(F)F)nn1-c1ncccc1Cl [II-1-9],"Kill rate in % after 6 d, found",Heliothis armigera; 0.0064 ppm,30%
same,"Kill rate in % after 3 d, found",Heliothis armigera; 0.0064 ppm,10%
same,"Kill rate in % after 1 d, found",Aphis gossypii; 4 ppm,10%
same,"Kill rate in % after 6 d, found",Myzus persicae; 4 ppm,25%
same,"Kill rate in % after 7 d, found","[1]; Table E 1, 100 ppm",0%
same,"Kill rate in % after 7 d, found","[1]; Table E 2, 100 ppm",0%
same,"Kill rate in % after 4 d, found","[2]; Table D 1, 0.16 ppm",0%
same,"Kill rate in % after 4 d, found","[2]; Table D 2, 0.16 ppm",5%
"abamectin [(2-2) abamectin, reference compound]","Kill rate in % after 6 d, found",Heliothis armigera; 0.16 ppm,50%
"spinosad [(2-17) spinosad, reference compound]","Kill rate in % after 3 d, found",Heliothis armigera; 0.032 ppm,0%
